Earlier results in patent publication US6051591A, “Diazabicyclooctane derivatives” (Merck Sharp & Dohme Ltd., priority 1995, dated 2000).

Experiments:
[1] = system: human 5-HT1Dα and 5-HT1Dβ receptor subtypes; conditions: cf. WO-A-91/17174, Table 1
[2] = therapeutic doses

SMILES: CNS(=O)(=O)Cc1ccc2[nH]cc(CCN(C)C)c2c1 [sumatriptan]
- discrimination between human 5-HT1Dα and 5-HT1Dβ receptor subtypes [1]: barely discriminates
- adverse cardiovascular events in humans [2]: certain adverse cardiovascular events
